Laboratory results as given in ChEMBL document CHEMBL3046813, “Novel tetranortriterpenoid derivatives from Munronia henryi” (2003).

Columns and labels:
Pieris brassicae [1] = experiment: Antifeedant activity against Pieris brassicae third-instar larvae reared on compound pre-treated Brassica oleracea L. leaf disks assessed as insect mortality at 1000 ppm measured after 6 days by conventional leaf disk method; format: functional; settings: foliar
Pieris brassicae [2] = experiment: Antifeedant activity against Pieris brassicae third-instar larvae reared on compound pre-treated Brassica oleracea L. leaf disks assessed antifeeding rate at 1000 ppm measured after 48 hr by conventional leaf disk method; format: functional

Question: What does the source list for `C/C=C(\C)C(=O)O[C@H]1C[C@@H](OC(C)=O)[C@@]2(C(=O)OC)CO[C@H]3[C@@H](O)[C@@](C)([C@]45O[C@@]4(C)[C@@H]4C[C@H]5O[C@@H]5OC=C[C@@]54O)[C@H]4[C@]1(CO[C@]4(O)C(=O)OC)[C@@H]32` [AZADIRACHTIN A]?
Answer: mortality at 1000 ppm (Pieris brassicae [1]): 100%; AFI (Pieris brassicae [2]): 99.5%

Question: Which mortality at 1000 ppm (Pieris brassicae [1]) does the source give for `C=C1[C@@H]2[C@@H](OC(=O)C=C[C@@]2(C)[C@H]2CC(=O)OC2(C)C)[C@H](OC(C)=O)[C@@]2(C)[C@H](C3=CC(O)OC3=O)C[C@H]3O[C@]132` (some centres undefined) [MUNRONIN A] here?
Answer: Its mortality at 1000 ppm is 20%.

Question: And the AFI (Pieris brassicae [2])?
Answer: Its AFI is 0%.

Question: Which mortality at 1000 ppm (Pieris brassicae [1]) does the source give for `C=C1[C@@H]2[C@@H](OC(=O)C=C[C@@]2(C)[C@H]2CC(=O)OC2(C)C)[C@H](OC(C)=O)[C@@]2(C)[C@H](C3=CC(=O)OC3O)C[C@H]3O[C@]132` (some centres undefined) [MUNRONIN B] here?
Answer: The mortality at 1000 ppm was 10%.

Question: What about the AFI (Pieris brassicae [2]) of the same compound?
Answer: The AFI was 20.9%.

Question: What does the source list for `C=C1[C@@H]2[C@@H](OC(=O)C=C[C@@]2(C)[C@H]2CC(=O)OC2(C)C)[C@H](OC(C)=O)[C@@]2(C)[C@H](C3=CCOC3=O)C[C@H]3O[C@]132` [MUNRONIN C]?
Answer: mortality at 1000 ppm (Pieris brassicae [1]): 10%; AFI (Pieris brassicae [2]): 31%

Question: `C=C1[C@@H]2[C@@H](OC(=O)C=C[C@@]2(C)[C@H]2CC(=O)OC2(C)C)[C@H](OC(C)=O)[C@@]2(C)[C@H](C3=CCNC3=O)C[C@H]3O[C@]132` [MUNRONIN D] was tested. Which mortality at 1000 ppm (Pieris brassicae [1]) did it give?
Answer: The mortality at 1000 ppm was 10%.

Question: What about the AFI (Pieris brassicae [2]) of the same compound?
Answer: Its AFI is 28%.

Question: How did the mortality at 1000 ppm (Pieris brassicae [1]) turn out when `C#C[C@@H]1C[C@H]2O[C@]23C(=C)[C@@H]2[C@@H](OC(=O)C=C[C@@]2(C)[C@H]2CC(=O)OC2(C)C)[C@H](OC(C)=O)[C@@]13C` [MUNRONIN E] was run?
Answer: The mortality at 1000 ppm was 10%.

Question: And the AFI (Pieris brassicae [2])?
Answer: Its AFI is 37.1%.

Question: How did the mortality at 1000 ppm (Pieris brassicae [1]) turn out when `C=C1[C@@H]2[C@@H](OC(=O)C=C[C@@]2(C)[C@H]2CC(=O)OC2(C)C)[C@H](OC(C)=O)[C@@]2(C)[C@H](C(=O)O)C[C@H]3O[C@]132` [MUNRONIN F] was run?
Answer: The mortality at 1000 ppm was 0%.

Question: What about the AFI (Pieris brassicae [2]) of the same compound?
Answer: Its AFI is 0%.
